In paper PMC11151873, “Cathelicidin-HG Alleviates Sepsis-Induced Platelet Dysfunction by Inhibiting GPVI-Mediated Platelet Activation” (Research, 2024):
Values belong to the compound of their own block, whether it stands above or below them.

Columns and labels:
[1] = system: lactate dehydrogenase (LDH); assay: Serum LDH activity in CLP mice; format: in vivo, Male BALB/c mice; conditions: i.p. 2 h after CLP; Cath-HG 1.25, 2.5, 5 mg/kg or clopidogrel 20 mg/kg; n = 4
Protocol: (§1) CLP-induced sepsis was performed based on our previous method with minor modifications. Briefly, under sterile conditions, the cecum of anesthetized mice was exposed and tightly ligated approximately 1 cm from the end. Then, the cecum was punctured twice at different mid-points with a 22-gauge needle, gently squeezed to extrude a small amount of fecal matter, returned into the peritoneal cavity which was sutured. Finally, the mice underwent resuscitation through the administration of 1 ml of preheated physiological saline via subcutaneous injection. […] Clopidogrel (20 mg/kg) was administered as a positive control, and blank control mice underwent sham surgery and received saline. All mice were monitored for 72 h after the induction of CLP. Another group of mice underwent the same procedure described above. Twenty-four hours after the surgery, the mice were euthanized, and blood, heart, liver, spleen, lung, and kidney samples were collected for subsequent analysis.
For platelet count determination, blood was collected in EDTA and analyzed using a PE-6800 Fully Auto Hematology Analyzer (Prokan, Shenzhen, China). […] TPO levels were determined by ELISA, and LDH activity was measured using an LDH assay kit.

CLP septic mice [2] = assay: Bacterial loads in organs of CLP mice; format: in vivo, Male BALB/c mice; conditions: heart, liver, spleen, lung, kidney; 24 h after CLP; i.p. Cath-HG 1.25, 2.5, 5 mg/kg or clopidogrel 20 mg/kg
Protocol: as §1

CLP septic mice [3] = assay: Microvascular thrombosis by fluorescent bead imaging in CLP mice; format: in vivo, Male BALB/c mice; conditions: lungs, liver, kidneys; i.p. 2 h after CLP; Cath-HG 1.25, 2.5, 5 mg/kg or clopidogrel 20 mg/kg
Protocol: as §1

[4] = system: phosphorylation of Src, Syk, PLCγ2, and Akt; assay: Western blot: phosphorylation of GPVI downstream proteins in collagen-stimulated platelets; format: cell-based, mice; conditions: washed platelets, Cath-HG 5, 10, 20 μM 5 min, n = 3, or dasatinib (Src inhibitor)
Protocol: The platelets were lysed with radioimmunoprecipitation assay buffer containing protease inhibitor and phosphatase inhibitor cocktails, and the protein concentration was determined with a bicinchoninic acid protein assay kit before SDS-polyacrylamide gel electrophoresis separation and polyvinylidene difluoride (PVDF) membrane transferring. The membranes were incubated with corresponding primary antibodies overnight at 4 °C and appropriate horseradish peroxidase-conjugated secondary antibodies at room temperature for 1 h after being blocked with 5% skimmed milk at room temperature for 1 h. Finally, the results were recorded using a FluorChem R chemiluminescence imaging system (ProteinSimple, CA, USA) and analyzed using ImageJ software.

[5] = target: platelet glycoprotein VI (mouse (endogenous in mouse platelets)) (UniProt P0C191)
Sequence of UniProt P0C191 (P0C191 22-313): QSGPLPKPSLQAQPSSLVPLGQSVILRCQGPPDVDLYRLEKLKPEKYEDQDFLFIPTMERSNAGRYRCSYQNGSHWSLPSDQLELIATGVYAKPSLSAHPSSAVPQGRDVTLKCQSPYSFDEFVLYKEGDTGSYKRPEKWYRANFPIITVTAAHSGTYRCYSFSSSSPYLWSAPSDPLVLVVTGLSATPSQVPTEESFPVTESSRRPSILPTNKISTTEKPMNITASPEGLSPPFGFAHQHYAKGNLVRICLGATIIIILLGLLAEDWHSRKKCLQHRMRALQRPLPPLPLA

FeCl3-injured mice = assay: FeCl3-induced carotid artery thrombosis model; format: in vivo, Male BALB/c mice; conditions: FeCl3 10% (w/v), i.v. 30 min before injury, Cath-HG 5 mg/kg or heparin 1,000 U/kg
Protocol: The carotid artery thrombus experiment was carried out as described by Zhang et al. […] Anesthesia was induced with 2.0% isoflurane before the left carotid artery was exposed through a midline neck incision. A small piece of filter paper (2 mm × 1 mm) saturated with 10% (w/v) FeCl3 solution was placed on the carotid artery for 5 min to induce thrombus formation. The filter paper was then removed, and the artery was washed with saline. The carotid blood flow and occlusion time were measured to evaluate thrombus formation with the RFLSI Pro+ laser speckle blood flow imaging system (RWD, Shenzhen, China).

Compound: COC(=O)[C@H](c1ccccc1Cl)N1CCc2sccc2C1 [clopidogrel]
LDH activity in serum [1]: significantly decreased after Cath-HG or clopidogrel treatment
bacterial load in organs (CLP septic mice [2]): reduced the bacterial burden in the organs of CLP mice
microvascular thrombosis (fluorescence of beads) (CLP septic mice [3]): reduced the fluorescence levels of lungs, liver, and kidneys

Compound: Cc1nc(Nc2ncc(C(=O)Nc3c(C)cccc3Cl)s2)cc(N2CCN(CCO)CC2)n1 [dasatinib]
collagen-induced phosphorylation of GPVI downstream proteins (Src, Syk, PLCγ2, Akt) [4]: completely inhibited

inhibition of platelet aggregation in platelet-rich plasma induced by the GPVI-specific agonist convulxin (0.6 nM); Cath-HG 5, 10 and 20 μM, value at 20 μM [5]: 63.2%
Compound: Cathelicidin-HG (peptide)

Compound: heparin
carotid blood flow (FeCl3-injured mice; laser speckle imaging): significantly increased blood flow
mean occlusion time of carotid artery (FeCl3-injured mice; n = 3, mean ± SD, control 2.9 ± 0.3 min): 5.4 ± 0.3 min
